The source of these data is patent publication US10980788B2, “Therapy for treating malignancies” (Agios Pharmaceuticals, Inc., priority 2018, dated 2021).

One may read the half-life as the time in which the quantity being followed falls by half. Low values mean fast loss, high ones slow loss.

Where two headings read alike, the source gives them in different places.

The nature of data set [1]: Safety and tolerability of a single oral dose of 500 mg COMPOUND 1 in healthy subjects. It counts as in vivo, human. The following applies: single oral dose of 500 mg, fed and fasted conditions. As for the experimental part: Safety and tolerability were also evaluated for a single oral dose of 500 mg of COMPOUND 1.
Incidence of adverse events and serious adverse events was assessed.

A short description of data set [2]: Food effect on pharmacokinetics of COMPOUND 1 in healthy subjects (phase 1, open-label, randomized, two-period crossover). Format: in vivo, human. The following applies: for Tmax / half-life / AUC(0-inf) / AUC(0-t) / Cmax: plasma, single oral dose 500 mg. As to the method: The food effect on COMPOUND 1 PK following administration of a single oral dose of 500 mg of COMPOUND 1 in healthy subjects aged 18-55 years was evaluated in a was a phase 1, open-label, randomized, two-period crossover study.
The study was conducted according to the United States Food and Drug Administration (FDA) 2002 Guidance for Industry “Food-Effect Bioavailability and Fed Bioequivalence Studies”.
Treatments A and B, each comprising a single oral dose of 500 mg of COMPOUND 1, were administered as shown in Table 1. • A (fasted): two 250 mg tablets administered after an overnight fast (approximately 10 hr). • B (fed): two 250 mg tablets administered after a standardized high-fat breakfast, consumed within 30 minutes prior to COMPOUND 1 dosing.
The standardized FDA high-fat content meal contains the equivalent of ˜150 protein calories, ˜250 carbohydrate calories, and ˜500-600 fat calories, and comprises two eggs fried in butter, two strips of bacon, two slices of toast with butter, four ounces of hash brown potatoes (fried with butter), and eight ounces (240 mL) of whole milk.
Of the 30 subjects enrolled, 15 were randomized to sequence AB and 15 were randomized to sequence BA.
Blood samples for the analysis of COMPOUND 1 concentrations were collected predose and 0.5, 1, 2, 3, 4, 6, 9, 12, 24, 48, 72, 120, 168, 240, 336, and 504 hr postdose. Plasma concentrations of COMPOUND 1 were determined using a validated liquid chromatography with tandem mass spectrometry method. PK parameters were calculated using WinNonlin (Pharsight Corporation, Version 6.2.1). Linear mixed model analysis was performed on natural logarithm (In) transformed maximum observed concentration (Cmax), area under the concentration-time curve from Hour 0 to the last measurable concentration (AUC0-t), and area under the concentration-time curve extrapolated to infinity (AUC0-∞). The analyses were performed using the SAS MIXED procedure. […] Inter-subject variability was determined using the geometric coefficient of variation percent (CV %).

Setting [3] is: fed condition (test) versus fasted condition (reference), 500 mg, n = 27.
Setting [4] is: high-fat meal compared with fasted condition, 500 mg single oral dose.
[5] abbreviates: human, po, 500 mg, fasted, n = 29, geometric mean.
The mark [6] stands for this setting: human, po, 500 mg, fed (high-fat meal), n = 27, geometric mean.

As to `N#Cc1ccnc(N2C(=O)CC[C@H]2C(=O)N(c2cncc(F)c2)[C@H](C(=O)NC2CC(F)(F)C2)c2ccccc2Cl)c1` [COMPOUND 1, (S)—N—((S)-1-(2-chlorophenyl)-2-((3,3-difluorocyclobutyl)amino)-2-oxoethyl)-1-(4-cyanopyridin-2-yl)-N-(5-fluoropyridin-3-yl)-5-oxopyrrolidine-2-carboxamide], the Safety and tolerability result in data set [1] is “safe and well tolerated”. In data set [2] (setting [3]), the “Geometric mean ratio (%) AUC0-t” value is on record as 125.6%, the “Geometric mean ratio (%) AUC0-∞” value was 124.3% and the “Geometric mean ratio (%) Cmax” value was determined as 197.8%. Further, in data set [2] (setting [4]), the “Increase in extent of exposure as assessed by AUC0-t” value is on record as 25.6%, the “Increase in extent of exposure as assessed by AUC0-∞” value stood at 24.3% and the “Increase in mean Cmax” value is roughly 2 fold. For the same compound, the “Increase in AUC” value in data set [2] (high-fat meal prior to dosing compared with fasted, 500 mg single oral dose) is recorded as roughly 25%. For the same compound, the Tmax in data set [2] (human, po, 500 mg, fasted, n = 29, median, read-out: Tmax) stood at 3 h. Besides, in data set [2] (human, po, 500 mg, fed (high-fat meal), n = 27, median, read-out: Tmax), the Tmax amounted to 3 h. Further, the half-life in data set [2] (human, po, 500 mg, fasted, n = 29, arithmetic mean) was 55.4 h. In data set [2] (setting [5]), the AUC(0-inf) was found to be 143 µg·h/mL, the AUC(0-t) is 136 µg·h/mL and the Cmax turned out to be 2270 ng/mL. Moreover, in data set [2] (human, po, 500 mg, fed (high-fat meal), n = 27, arithmetic mean), the half-life is 53.2 h. In data set [2] (setting [6]), this compound returned an AUC(0-inf) of 174 µg·h/mL, an AUC(0-t) of 166 µg·h/mL and a Cmax of 4490 ng/mL. For the same compound, the Tmax in data set [2] (fasted, n = 29, median) amounted to 3.03 h.
